Test results as given in US20230078120A1 (priority 2020, published 2023).
“And” between values parts separate entries of the source, which are not always exact repeats. Identical values can stand only once. Like-named read-outs stand apart in the source and are kept apart here.

Columns and labels:
virus-infected cells = settings: cited from earlier work
[1] = tested on: influenza A virus (IAV) infected cells; settings: caspase-mediate apoptosis pathway; cited from earlier work
HBV [2] = assay: HBV replication in HepG2.2.15 liver cancer cell line; type: cell-based
Description: (§1) Similar to the above mentioned IAP inhibitors, Compound 2 of the present invention is a potent IAP inhibitor and can promote apoptosis, and thus could be a potential antiviral compound for coronavirus infection treatment. FIGS. 1A-1C show the effect of Compound 2 on apoptotic induction, IAPs expression, and HBV replication and gene expression in HepG2.2.15 liver cancer cell line.

HBV [3] = settings: mouse model of chronic HBV infection; cited from earlier work
SARS-CoV-2 = assay: microbe, parasite or virus in culture; type: cell-based; settings: for IC50: Severe acute respiratory syndrome coronavirus 2, Vero; for Max Inhibition (%): Vero cells, MOI 0.0125, 24 hpi, at the Max Conc. of each compound (5, 50 or 150 uM)
in vitro = settings: African green monkey
ABL1-nonphosphorylated = ABL1-nonphosphorylated (Homo sapiens, UniProt P00519); assay: Compound 1 kinase inhibition activity (% Ctrl), ABL1-nonphosphorylated; type: biochemical
ABL1-phosphorylated = ABL1-phosphorylated (Homo sapiens, UniProt P00519); assay: Compound 1 kinase inhibition activity (% Ctrl), ABL1-phosphorylated; type: biochemical
ABL2 = ABL2 (Homo sapiens, UniProt P42684); assay: Compound 1 kinase inhibition activity (% Ctrl), ABL2; type: biochemical
[4] = tested on: cytokines associated with influenza virus induced cytokine storm; assay: Inhibition of cytokines associated with influenza virus induced cytokine storm, U937 cells, Luminex assay; type: cell-based; settings: U937 cells infected with influenza virus, MOI 0.1, 24 hours treatment
Procedure: Following the method described in Front Immunol. 2019 Jun. 21; 1393 and Am. J. Physiol., Lung Cell Mol. Physiol. 315: L52-L58, 2018, U937 cells were infected with influenza virus at a MOI of 0.1 and treated with indicated concentrations of Compound 1 and Compound 2. The supernatant of cells was harvested after 24 hours treatment and the production of indicated cytokines were determined using Luminex assay. The method and results are shown below in FIG. 7 and FIGS. 8A-8C. Survival of influenza virus (IFV) infected mice are shown Table 4 and in FIGS. 9A-9B.

influenza virus = type: in vivo, mice
RIPK1 = molecular target: T1, RIPK1 (Homo sapiens, UniProt Q13546); assay: RIPK1 kinase assay (Promega RIPK1 Kinase Enzyme System kit); type: biochemical; settings: cell free assay
T1 sequence (Q13546 1-327 limits assumed): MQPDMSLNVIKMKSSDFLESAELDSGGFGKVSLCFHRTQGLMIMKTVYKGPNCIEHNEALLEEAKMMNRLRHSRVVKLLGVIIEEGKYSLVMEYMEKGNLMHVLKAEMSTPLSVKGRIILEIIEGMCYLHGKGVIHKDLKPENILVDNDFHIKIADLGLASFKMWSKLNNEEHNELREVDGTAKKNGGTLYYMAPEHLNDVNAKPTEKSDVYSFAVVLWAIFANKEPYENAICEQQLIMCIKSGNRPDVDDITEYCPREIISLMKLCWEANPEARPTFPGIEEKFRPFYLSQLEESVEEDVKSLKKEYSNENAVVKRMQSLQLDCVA

[5] = tested on: BCR-ABL1 expressing Ba/F3; settings: read-out: IC50 Cellular Activity (BCR-ABL1 expressing Ba/F3)
BCR-ABL1 kinase = BCR-ABL1 kinase (Homo sapiens, UniProt P00519); assay: biochemical
IAPs = IAPs expression in HepG2.2.15 liver cancer cell line; type: cell-based
Description: as §1

[6] = tested on: HepG2.2.15 liver cancer cell line; assay: Apoptotic induction in HepG2.2.15 liver cancer cell line; type: cell-based; settings: combination with TNF-α
Description: as §1

HBV [7] = assay: Virus clearance in pAAV-HBV 1.3 model; type: in vivo; settings: injection, C57BL/6J mice
HBV [8] = assay: HBV models in mice: hepatocyte apoptosis and liver immune readouts; type: in vivo
Vero E6 cells = settings: cited from earlier work
SARS-CoV [9] = settings: Vero E6 cells; cited from earlier work
MERS-CoV [10] = settings: Vero E6 cells; cited from earlier work
SARS-CoV [11] = settings: Vero E6 and Calu-3 cells; cited from earlier work
MERS-CoV [12] = settings: Vero E6 and MRC5 cells; cited from earlier work
IL-8, IP-10, MCP-1 = settings: cytokines associated with influenza-induced cytokine storm; cited from earlier work

Sequence of ABL1-phosphorylated (P00519 whole entry): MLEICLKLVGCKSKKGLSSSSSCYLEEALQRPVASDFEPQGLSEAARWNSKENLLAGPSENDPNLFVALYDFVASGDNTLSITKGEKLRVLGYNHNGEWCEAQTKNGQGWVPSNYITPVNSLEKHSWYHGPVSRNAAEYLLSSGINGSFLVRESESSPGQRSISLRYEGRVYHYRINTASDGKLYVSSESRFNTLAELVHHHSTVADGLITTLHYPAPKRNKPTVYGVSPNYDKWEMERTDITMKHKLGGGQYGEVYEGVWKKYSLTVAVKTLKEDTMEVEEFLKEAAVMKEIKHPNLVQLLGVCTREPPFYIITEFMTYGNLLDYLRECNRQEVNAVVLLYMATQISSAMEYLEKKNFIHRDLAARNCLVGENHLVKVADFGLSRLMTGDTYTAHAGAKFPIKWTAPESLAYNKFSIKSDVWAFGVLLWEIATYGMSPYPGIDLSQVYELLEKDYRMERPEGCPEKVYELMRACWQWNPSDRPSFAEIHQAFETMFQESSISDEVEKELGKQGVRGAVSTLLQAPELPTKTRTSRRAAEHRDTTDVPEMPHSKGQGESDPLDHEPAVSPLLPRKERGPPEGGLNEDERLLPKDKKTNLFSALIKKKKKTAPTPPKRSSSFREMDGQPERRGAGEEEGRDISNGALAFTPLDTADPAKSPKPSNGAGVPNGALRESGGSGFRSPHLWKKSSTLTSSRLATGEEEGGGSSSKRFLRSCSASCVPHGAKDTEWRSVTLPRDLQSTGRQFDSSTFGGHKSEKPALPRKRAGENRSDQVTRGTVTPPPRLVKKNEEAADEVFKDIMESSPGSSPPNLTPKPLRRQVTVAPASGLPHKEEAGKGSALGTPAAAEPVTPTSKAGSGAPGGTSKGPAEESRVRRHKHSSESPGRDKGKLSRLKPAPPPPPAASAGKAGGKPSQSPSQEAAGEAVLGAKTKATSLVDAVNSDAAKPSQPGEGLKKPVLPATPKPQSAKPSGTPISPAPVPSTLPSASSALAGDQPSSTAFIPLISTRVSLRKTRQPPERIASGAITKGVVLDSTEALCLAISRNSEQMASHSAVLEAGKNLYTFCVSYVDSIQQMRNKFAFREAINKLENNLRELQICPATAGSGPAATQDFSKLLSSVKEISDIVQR
Sequence of ABL1-nonphosphorylated (P00519 whole entry): as above
Sequence of ABL2 (P42684 whole entry, species assumed): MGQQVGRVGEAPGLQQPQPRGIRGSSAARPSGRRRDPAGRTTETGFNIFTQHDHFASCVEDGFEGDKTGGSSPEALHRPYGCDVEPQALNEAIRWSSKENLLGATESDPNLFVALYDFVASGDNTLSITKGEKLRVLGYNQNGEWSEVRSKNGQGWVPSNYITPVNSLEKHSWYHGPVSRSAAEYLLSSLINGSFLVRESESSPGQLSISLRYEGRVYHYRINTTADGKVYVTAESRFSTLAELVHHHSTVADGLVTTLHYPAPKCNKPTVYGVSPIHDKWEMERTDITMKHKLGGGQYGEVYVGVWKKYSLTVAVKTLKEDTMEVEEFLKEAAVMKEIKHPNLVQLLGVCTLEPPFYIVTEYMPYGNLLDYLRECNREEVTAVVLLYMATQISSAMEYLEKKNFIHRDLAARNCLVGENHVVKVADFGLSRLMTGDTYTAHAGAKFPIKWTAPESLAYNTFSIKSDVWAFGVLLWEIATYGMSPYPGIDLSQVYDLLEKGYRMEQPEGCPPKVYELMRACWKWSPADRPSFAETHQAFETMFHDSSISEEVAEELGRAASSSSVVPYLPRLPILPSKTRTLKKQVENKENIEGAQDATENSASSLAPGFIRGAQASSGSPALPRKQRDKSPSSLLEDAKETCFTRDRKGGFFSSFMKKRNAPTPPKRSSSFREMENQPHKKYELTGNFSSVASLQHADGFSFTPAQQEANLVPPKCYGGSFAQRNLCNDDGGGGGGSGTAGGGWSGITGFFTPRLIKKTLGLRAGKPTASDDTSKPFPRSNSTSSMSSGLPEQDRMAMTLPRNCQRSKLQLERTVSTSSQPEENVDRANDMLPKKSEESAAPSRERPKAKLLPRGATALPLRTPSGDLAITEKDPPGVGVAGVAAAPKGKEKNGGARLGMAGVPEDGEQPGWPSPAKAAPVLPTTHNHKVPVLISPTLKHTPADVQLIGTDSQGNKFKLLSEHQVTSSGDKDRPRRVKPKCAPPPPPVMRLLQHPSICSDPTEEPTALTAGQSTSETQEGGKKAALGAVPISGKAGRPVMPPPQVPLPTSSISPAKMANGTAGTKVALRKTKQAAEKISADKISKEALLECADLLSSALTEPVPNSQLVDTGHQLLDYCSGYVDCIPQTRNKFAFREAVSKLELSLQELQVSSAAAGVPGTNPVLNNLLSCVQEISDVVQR
Sequence of BCR-ABL1 kinase (P00519 27-1130): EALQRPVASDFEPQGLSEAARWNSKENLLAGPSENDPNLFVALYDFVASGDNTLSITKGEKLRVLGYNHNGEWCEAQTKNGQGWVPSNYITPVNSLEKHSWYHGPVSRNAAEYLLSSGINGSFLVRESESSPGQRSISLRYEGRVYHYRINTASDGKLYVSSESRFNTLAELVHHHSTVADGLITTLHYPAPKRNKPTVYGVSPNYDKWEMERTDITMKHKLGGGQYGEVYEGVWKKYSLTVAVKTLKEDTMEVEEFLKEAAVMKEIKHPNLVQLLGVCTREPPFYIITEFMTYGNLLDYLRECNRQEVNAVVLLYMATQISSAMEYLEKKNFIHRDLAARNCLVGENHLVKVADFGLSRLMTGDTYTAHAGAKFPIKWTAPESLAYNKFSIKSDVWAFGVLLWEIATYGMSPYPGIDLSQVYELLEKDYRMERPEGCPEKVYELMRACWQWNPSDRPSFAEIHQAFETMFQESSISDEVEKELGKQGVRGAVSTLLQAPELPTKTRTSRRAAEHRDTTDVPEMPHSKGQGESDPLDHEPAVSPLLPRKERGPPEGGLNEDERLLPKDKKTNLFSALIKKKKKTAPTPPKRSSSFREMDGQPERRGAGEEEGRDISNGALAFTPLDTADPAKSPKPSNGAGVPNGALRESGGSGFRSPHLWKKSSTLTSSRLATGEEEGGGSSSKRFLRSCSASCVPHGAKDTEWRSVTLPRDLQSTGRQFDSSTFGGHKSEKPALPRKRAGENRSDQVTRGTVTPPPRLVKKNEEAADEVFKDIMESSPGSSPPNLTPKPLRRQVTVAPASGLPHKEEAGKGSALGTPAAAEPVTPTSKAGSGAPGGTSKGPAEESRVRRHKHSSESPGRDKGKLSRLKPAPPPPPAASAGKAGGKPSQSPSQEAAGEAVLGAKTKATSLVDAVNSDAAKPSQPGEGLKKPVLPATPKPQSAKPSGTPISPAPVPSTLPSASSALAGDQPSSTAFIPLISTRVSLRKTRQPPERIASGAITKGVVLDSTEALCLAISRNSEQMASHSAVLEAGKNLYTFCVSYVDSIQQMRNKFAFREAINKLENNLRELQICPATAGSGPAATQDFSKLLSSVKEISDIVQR

CC1(C)CCC(c2ccc(Cl)cc2)=C(CN2CCN(c3ccc(C(=O)NS(=O)(=O)c4ccc(N[C@H](CCN5CCOCC5)CSc5ccccc5)c(S(=O)(=O)C(F)(F)F)c4)cc3)CC2)C1 [ABT-236]
apoptosis in virus-infected cells (virus-infected cells): accelerate apoptosis in virus-infected cells

CC1(C)CCC(c2ccc(Cl)cc2)=C(CN2CCN(c3ccc(C(=O)NS(=O)(=O)c4ccc(N[C@H](CCN5CCOCC5)CSc5ccccc5)c(S(=O)(=O)C(F)(F)F)c4)cc3)CC2)C1 [ABT-263]
apoptosis in virus-infected cells [1]: accelerates apoptosis in virus-infected cells

CN(C)CC[C@H](CSc1ccccc1)Nc1ccc(S(=O)(=O)NC(=O)c2ccc(N3CCN(Cc4ccccc4-c4ccc(Cl)cc4)CC3)cc2)cc1[N+](=O)[O-] [ABT-737]
apoptosis in virus-infected cells (virus-infected cells): accelerate apoptosis in virus-infected cells

CC[C@H](NC(=O)[C@H](C)NC)C(=O)N1C[C@@H](O)C[C@H]1Cc1c(-c2[nH]c3cc(F)ccc3c2C[C@@H]2C[C@H](O)CN2C(=O)[C@H](CC)NC(=O)[C@H](C)NC)[nH]c2cc(F)ccc12 [Birinapant]
virus replication (HBV [2]; high concentrations): impair enhancement of virus replication
virus replication (HBV [2]; low concentrations): increased virus replication
elimination of hepatocytes containing HBV core antigen (HBV [3]): promote the elimination
serum HBV DNA (HBV [3]): rapidly reduce
serum HBV surface antigen (HBV [3]): rapidly reduce

CCN(CC)CCCC(C)Nc1ccnc2cc(Cl)ccc12 (stereo not drawn) [Chloroquine]
IC50 (SARS-CoV-2): 13 µM
Max Inhibition (%) (SARS-CoV-2): 100.01%
CC50 (in vitro): > 150 µM

Cc1ccc(C(=O)Nc2ccc(CN3CCN(C)CC3)c(C(F)(F)F)c2)cc1C#Cc1cnc2[nH]ncc2c1 [Compound 1, 3-(2-(1H-pyrazolo[3,4-b]pyridin-5-yl)ethynyl)-4-methyl-N-(4-((4-methylpiperazin-1-yl)methyl)-3-(trifluoromethyl)phenyl)-benzamide]
remaining activity at 0.01 µM (ABL1-nonphosphorylated; read-out: % Ctrl @ 10 nM): 4.4%
remaining activity at 0.1 µM (ABL1-nonphosphorylated; read-out: % Ctrl @ 100 nM): 0.1%
remaining activity at 1 µM (ABL1-nonphosphorylated; read-out: % Ctrl @ 1000 nM): 0%
remaining activity at 0.01 µM (ABL1-phosphorylated; read-out: % Ctrl @ 10 nM): 3%
remaining activity at 0.1 µM (ABL1-phosphorylated; read-out: % Ctrl @ 100 nM): 0%
remaining activity at 1 µM (ABL1-phosphorylated; read-out: % Ctrl @ 1000 nM): 0%
remaining activity at 0.01 µM (ABL2; 10 nM): 2.6%
remaining activity at 0.1 µM (ABL2; 100 nM): 0%
remaining activity at 1 µM (ABL2; 1000 nM): 0%
IC50 (SARS-CoV-2): 1.32 µM
SARS-CoV-2 infection in Vero cell (SARS-CoV-2; result in words): inhibits SARS-CoV-2 infection in Vero cell
production of cytokines associated with influenza induced cytokine storm [4]: inhibits the production of cytokines associated with influenza induced cytokine storm
survival of influenza virus infected mice (influenza virus; at the amounts of 5 mg/kg or 10 mg/kg): improves the survival of influenza virus infected mice
Day 21 Survival number (influenza virus; mouse, in vivo): 1 and 2
Survival rate (%) (influenza virus; mouse, in vivo): 11.11% and 22.22%
IC50 (RIPK1): 0.054 µM
IC50 [5]: 0.006 ± 0.003 µM
CC50 (in vitro): > 5 µM
IC50 (BCR-ABL1 kinase): 0.0003 ± 4.5e-06 µM

CN[C@@H](C)C(=O)N[C@H]1CN(S(=O)(=O)c2cccc(S(=O)(=O)N3CC[C@H]4CC[C@@H](C(=O)NC(c5ccccc5)c5ccccc5)N4C(=O)[C@@H](NC(=O)[C@H](C)NC)C3)c2)CC[C@H]2CC[C@@H](C(=O)NC(c3ccccc3)c3ccccc3)N2C1=O [Compound 2, (5S,5′S,8S,8′S,10aR,10a′R)-3,3′-(1,3-phenylenedisulfonyl)bis(N-benzhydryl-5-((S)-2-(methylamino)propanamido)-6-oxodecahydropyrrolo[1,2-a][1,5]diazocine-8-carboxamide)]
IC50 (SARS-CoV-2): > 50 µM
Max Inhibition (%) (SARS-CoV-2): 25.93%
production of cytokines associated with influenza induced cytokine storm [4]: inhibits the production of cytokines associated with influenza induced cytokine storm
expression of IAPs (IAPs): inhibits the expression of IAPs in a dose-dependent manner
apoptosis pathway activation [6]: significantly activate apoptosis pathway
virus replication (HBV [2]; high concentrations): impair enhancement of virus replication
virus replication (HBV [2]; low concentrations): increased virus replication
virus clearance (HBV [7]): promotes virus clearance
apoptosis in the HBV-infected (HBsAg+) hepatocytes (HBV [8]; HBV models in mice): specifically induced apoptosis
expression of IFN-γ and TNF-α (HBV [8]; liver tissue of HBV models): promotes the expression of IFN-γ and TNF-α
number of CD4+ and CD8+ T cells (HBV [8]; liver tissue of HBV models): promotes
CC50 (in vitro): > 50 µM

Cc1nc(Nc2ncc(C(=O)Nc3c(C)cccc3Cl)s2)cc(N2CCN(CCO)CC2)n1 [Dasatinib]
cytotoxicity (Vero E6 cells): low cytotoxicity

Cc1ccc(NC(=O)c2ccc(CN3CCN(C)CC3)cc2)cc1Nc1nccc(-c2cccnc2)n1 [Imatinib]
inhibition of SARS-CoV (SARS-CoV [9]): inhibit
inhibition of MERS-CoV (MERS-CoV [10]): inhibit
cytotoxicity (Vero E6 cells): low cytotoxicity
virus production of SARS-CoV (SARS-CoV [11]): showed inhibition
virus production of MERS-CoV (MERS-CoV [12]): showed inhibition

Cc1cccc(C)c1OCC(=O)N[C@@H](Cc1ccccc1)[C@@H](O)C[C@H](Cc1ccccc1)NC(=O)[C@H](C(C)C)N1CCCNC1=O [Lopinavir]
IC50 (SARS-CoV-2): 17.3 µM
Max Inhibition (%) (SARS-CoV-2): 99.93%
CC50 (in vitro): > 50 µM

Cc1cn(-c2cc(NC(=O)c3ccc(C)c(Nc4nccc(-c5cccnc5)n4)c3)cc(C(F)(F)F)c2)cn1 [Nilotinib, reference compound]
IC50 [5]: 0.01 ± 0.003 µM
production of IL-8, IP-10 and MCP-1 (IL-8, IP-10, MCP-1): inhibit the production

CCOC(=O)C1=C[C@@H](OC(CC)CC)[C@H](NC(C)=O)[C@@H](N)C1 [Oseltamivir]
Survival rate (%) (influenza virus; 10 mpk, QD, 2 hr prior to infection, day 21): 100%
Day 21 Survival number (influenza virus; 10 mpk, QD, 2 hr prior to infection, of 9 animals): 9

Cc1ccc(C(=O)Nc2ccc(CN3CCN(C)CC3)c(C(F)(F)F)c2)cc1C#Cc1cnc2cccnn12 [Ponatinib]
Day 21 Survival number (influenza virus; mouse, in vivo): 2 and 1
Survival rate (%) (influenza virus; mouse, in vivo): 22.22% and 11.11%

CCC(CC)COC(=O)[C@H](C)N[P@](=O)(OC[C@H]1O[C@@](C#N)(c2ccc3c(N)ncnn23)[C@H](O)[C@@H]1O)Oc1ccccc1 [Remdesivir]
IC50 (SARS-CoV-2): 12.4 µM
Max Inhibition (%) (SARS-CoV-2): 95.01%
CC50 (in vitro): > 50 µM
